Entries after “also recorded” stand apart in the source; their conditions may differ.
Columns and labels:
IKK [1] = biological target: T1, IKK (Homo sapiens, UniProt O14920+O15111); assay: MEKK1-induced IKK activity in Jurkat cells; type: cell-based; settings: data not shown
Experimental: (§1) Cells used in the experiments described herein were cultured in either RPMI 1640 (Jurkat cells) or DMEM (HeLa and COS cells), supplemented with 10% FBS and antibiotics. Cells were stimulated with either 25 ng/ml TPA, 20 ng/ml recombinant TNFα, or 10 ng/ml interleukin 1β (Sigma). PGA1, 15dPGJ2, T×B2, LTB4, AA and other PGs (Cayman) dissolved in ethanol were used as well, as known in the art (See e.g., Rossi et al., 94:746-750 [1997]). Controls received equal amounts of ethanol. Transfections were performed using Lipofectamine Plus (GIBCO) for HeLa and COS cells and DEAE-dextran (Sigma) for Jurkat cells. Xpress-tagged NIK, Xpress-tagged MEKK1, HA-tagged IKKα, and HA-tagged IKKβ were also used (See e.g., Zandi et al., Science 281:1360-1363 [1998]; and Delhase et al., Science 284:309-313 [1999]). COX2 and cPLA2 expression vectors were obtained from Dr. L. Feng (See also, Hirose et al., J. Am. Soc. Nephrol., 9:408-416 [1998]). PGD synthase was cloned from HT29 colon carcinoma cell line cDNA by PCR and subcloned into a pCDNA3 vector. […]
(§2) Cell lysates were incubated with anti-IKKα (Pharmingen), anti-HA (12CA5; Pharmingen), anti-JNK1 (333.8; Pharmingen), or anti-p38 (New England Biolabs) for 2 hours. […] Endogenous IKK, HA-tagged IKKα, endogenous JNK1, and p38 activities were determined with GST-1κBα(1-54), GST-c-Jun(1-79), and GST-ATF2 as substrates.

p38 = p38 (Homo sapiens, UniProt Q16539); assay: p38 MAP kinase activation in TPA-stimulated Jurkat cells; type: cell-based; parameters: endogenous in cells; host or cells: Jurkat; settings: 24 μM PGA1, TPA
Experimental: as §1
as §2, with “substrates. […]” for “substrates.”

IKK [2] = assay: MEKK1-induced IKK activity in COS cells; type: cell-based; settings: data not shown
Experimental: as §1, §2

IKK [3] = biological target: T1, IKK; assay: Endogenous IKK activity (kinase assay) in Jurkat cells stimulated with TNFα or TPA; type: cell-based; parameters: endogenous in cells
Experimental: as §1
as §2, with “substrates. […]” for “substrates.”

IκBα = IκBα degradation in stimulated Jurkat cells (immunoblot); type: cell-based, human; settings: TNFα or TPA
Experimental: as §1
In addition, recombinant IKKβ was expressed in Sf9 cells and purified as described (Zandi et al., supra). […] After 1.5 hours at 4° C., the immunoprecipitates were washed and the kinase activity determined. […]

IKKβ(C179A) = biological target: T2, IKKβ(C179A) (Homo sapiens, UniProt O14920, C179A); assay: IKKβ(C179A) coexpressed with NIK in HeLa cells, kinase activity; type: cell-based; settings: HeLa cells coexpressing NIK, treated 2 hours
T2 sequence (O14920 1-756 C179A): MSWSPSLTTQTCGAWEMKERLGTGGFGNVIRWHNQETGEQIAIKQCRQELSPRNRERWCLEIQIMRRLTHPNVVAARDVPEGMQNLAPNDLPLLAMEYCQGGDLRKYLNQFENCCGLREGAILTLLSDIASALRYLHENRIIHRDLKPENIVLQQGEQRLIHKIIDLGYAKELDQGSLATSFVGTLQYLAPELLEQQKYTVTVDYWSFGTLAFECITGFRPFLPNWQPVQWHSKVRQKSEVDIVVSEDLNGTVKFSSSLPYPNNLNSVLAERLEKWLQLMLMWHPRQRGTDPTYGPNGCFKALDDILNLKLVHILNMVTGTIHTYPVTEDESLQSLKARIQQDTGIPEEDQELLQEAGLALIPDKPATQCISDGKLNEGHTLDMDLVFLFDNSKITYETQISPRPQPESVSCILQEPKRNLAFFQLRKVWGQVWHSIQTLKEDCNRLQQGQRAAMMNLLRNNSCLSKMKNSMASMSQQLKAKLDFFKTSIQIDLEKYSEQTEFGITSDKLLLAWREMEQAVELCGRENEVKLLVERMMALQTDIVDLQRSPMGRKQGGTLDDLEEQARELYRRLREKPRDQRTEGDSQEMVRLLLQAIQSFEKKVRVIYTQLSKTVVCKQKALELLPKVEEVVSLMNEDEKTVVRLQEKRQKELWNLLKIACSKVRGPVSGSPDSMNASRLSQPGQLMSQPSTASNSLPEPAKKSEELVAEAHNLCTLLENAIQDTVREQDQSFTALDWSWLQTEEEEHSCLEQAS
Experimental: In an experiment to determine whether this cysteine is critical for sensitivity to cyPG, cysteine was replaced with an alanine using site-directed mutagenesis. In these experiments, HeLa cells were transiently transfected with expression vectors for IKKβ(WT) or IKKβ(C179A) with or without a NIK expression vector. After 16 hours, NIK transfected cells were treated for 2 hours with 15dPGJ2. Kinase activity (KA) and expression (IB:HA) were subsequently determined. Thus, wild-type (WT) IKKβ and mutant IKKβ (i.e., IKKβ(C179A)) were coexpressed with NIK in HeLa cells and their sensitivity to 15dPGJ2 examined. While both constructs were equally responsive to NIK, resulting in similar levels of kinase activity, the IKKβ(C179A) mutant was resistant to inhibitor (See, FIG. 6C).

T1 sequence (O14920 whole entry): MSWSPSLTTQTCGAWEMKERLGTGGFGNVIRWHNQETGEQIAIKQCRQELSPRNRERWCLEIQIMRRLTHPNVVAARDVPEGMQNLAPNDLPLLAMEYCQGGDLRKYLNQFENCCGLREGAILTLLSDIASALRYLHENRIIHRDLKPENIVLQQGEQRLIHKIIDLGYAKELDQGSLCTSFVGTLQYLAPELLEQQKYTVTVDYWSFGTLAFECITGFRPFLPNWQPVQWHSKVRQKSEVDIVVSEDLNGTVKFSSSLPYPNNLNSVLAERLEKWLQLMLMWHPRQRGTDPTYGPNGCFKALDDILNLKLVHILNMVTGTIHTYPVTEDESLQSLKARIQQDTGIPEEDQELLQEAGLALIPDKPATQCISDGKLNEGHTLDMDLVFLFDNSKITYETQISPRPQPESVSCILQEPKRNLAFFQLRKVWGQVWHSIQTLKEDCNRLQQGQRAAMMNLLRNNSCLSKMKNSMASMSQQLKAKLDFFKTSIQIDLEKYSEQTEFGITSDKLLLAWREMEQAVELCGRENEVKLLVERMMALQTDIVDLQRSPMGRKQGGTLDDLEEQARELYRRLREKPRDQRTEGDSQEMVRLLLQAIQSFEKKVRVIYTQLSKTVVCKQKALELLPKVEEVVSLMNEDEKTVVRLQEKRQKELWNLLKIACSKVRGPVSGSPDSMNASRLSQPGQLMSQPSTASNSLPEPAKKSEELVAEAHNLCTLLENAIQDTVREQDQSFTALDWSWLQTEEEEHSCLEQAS
T1 sequence (O15111 whole entry): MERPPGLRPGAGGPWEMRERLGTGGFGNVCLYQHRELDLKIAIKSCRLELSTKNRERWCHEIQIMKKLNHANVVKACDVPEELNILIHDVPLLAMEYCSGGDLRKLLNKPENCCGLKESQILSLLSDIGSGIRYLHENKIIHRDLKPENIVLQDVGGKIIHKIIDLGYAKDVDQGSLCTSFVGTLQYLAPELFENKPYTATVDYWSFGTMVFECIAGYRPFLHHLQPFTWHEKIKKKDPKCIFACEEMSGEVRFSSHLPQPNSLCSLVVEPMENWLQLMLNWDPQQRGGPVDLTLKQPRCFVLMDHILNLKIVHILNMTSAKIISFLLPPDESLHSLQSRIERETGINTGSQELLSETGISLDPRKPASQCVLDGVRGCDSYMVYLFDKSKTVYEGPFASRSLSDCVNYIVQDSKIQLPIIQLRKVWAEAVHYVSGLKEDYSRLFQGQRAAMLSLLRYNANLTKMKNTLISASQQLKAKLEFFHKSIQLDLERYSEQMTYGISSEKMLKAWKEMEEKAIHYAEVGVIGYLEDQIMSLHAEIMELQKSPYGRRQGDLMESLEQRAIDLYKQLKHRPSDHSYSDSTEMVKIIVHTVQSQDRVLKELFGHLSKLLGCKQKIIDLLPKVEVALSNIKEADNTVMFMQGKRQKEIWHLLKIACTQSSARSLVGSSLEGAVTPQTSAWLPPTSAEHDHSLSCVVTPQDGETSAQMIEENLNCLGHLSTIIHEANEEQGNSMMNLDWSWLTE
T1 sequence (Q9Y6K9 whole entry partner): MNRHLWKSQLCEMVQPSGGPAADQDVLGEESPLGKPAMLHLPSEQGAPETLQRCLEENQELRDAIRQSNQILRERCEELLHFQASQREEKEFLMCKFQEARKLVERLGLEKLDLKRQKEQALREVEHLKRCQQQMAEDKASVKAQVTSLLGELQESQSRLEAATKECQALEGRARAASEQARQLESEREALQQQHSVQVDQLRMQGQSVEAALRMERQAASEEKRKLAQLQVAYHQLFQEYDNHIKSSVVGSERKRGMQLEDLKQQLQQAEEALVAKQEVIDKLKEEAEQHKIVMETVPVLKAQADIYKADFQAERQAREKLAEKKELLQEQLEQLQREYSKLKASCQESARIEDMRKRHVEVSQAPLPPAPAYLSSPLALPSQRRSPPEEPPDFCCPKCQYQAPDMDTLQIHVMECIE
Chain of p38 (Q16539 whole entry): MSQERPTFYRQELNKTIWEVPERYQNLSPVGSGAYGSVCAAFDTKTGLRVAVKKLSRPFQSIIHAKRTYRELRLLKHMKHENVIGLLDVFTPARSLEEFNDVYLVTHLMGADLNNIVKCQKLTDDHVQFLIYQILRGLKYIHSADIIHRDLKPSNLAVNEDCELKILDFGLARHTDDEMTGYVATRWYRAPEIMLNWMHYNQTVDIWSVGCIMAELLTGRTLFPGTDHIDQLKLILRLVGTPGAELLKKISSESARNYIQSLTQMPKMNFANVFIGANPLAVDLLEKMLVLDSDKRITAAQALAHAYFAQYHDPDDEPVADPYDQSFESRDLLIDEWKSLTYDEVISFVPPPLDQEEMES

Row | Structure (SMILES) | effect on MEKK1-induced IKK activity (IKK [1]) | effect on activation of p38 MAP kinase (p38) | effect on MEKK1-induced IKK activity (IKK [2]) | effect on IKK activity (IKK [3]; 24 μM PGA1 2 hours, TNFα or TPA) | effect on IKK activity after 15 minute exposure (IKK [3]; 15-min exposure, TPA 15 minutes) | effect on IκBα degradation (IκBα) | sensitivity of IKKβ(C179A) kinase activity to inhibitor (IKKβ(C179A))
1 | CCCCC[C@H](O)/C=C/[C@H]1C=CC(=O)C1CCCCCCC(=O)O (stereo partly shown) [PGA1, prostaglandin A1] | inhibited | did not inhibit | inhibited | inhibit IKK activity; also recorded: inhibited | partially inhibit | prevent IκBα degradation; also recorded: prevented | –
2 | CCCCC/C=C/C=C1/C(=O)C=C[C@@H]1C/C=C\CCCC(=O)O [15dPGJ2, 15-deoxy-Δ^12-14-PGJ2] | – | – | – | – | – | – | resistant

Source: patent publication US6649654B1, “Methods for identifying and using IKK inhibitors” (The Regents of the University of California, priority 1999, dated 2003)
